Measurements from patent US20100215579A1, “PHEN-NAPHTHALENE AND PHEN-QUINOLINE DERIVATIVES AND THEIR USE FOR BINDING AND IMAGING AMYLOID PLAQUES” (The Trustees of the University of Pennsylvania, priority 2007, published 2010).

Tests used:
amyloid plaques = molecular target: T1, amyloid plaques (Homo sapiens, UniProt P05067); experiment: Ki values of Phen-Nap, Nap-Phen derivatives (Ki binding data)
T1 construct: fibrillary Aβ plaques consisting predominately of aggregates of Aβ40 and Aβ42 peptides

[1] = Log P (octanol/Na2HPO4 buffer pH 7.4); format: physicochemical; conditions: pH 7.4
[2] = Biodistribution in ICR mice after an iv injection; format: in vivo
From the text: Biodistribution in ICR Mice After an iv Injection of [^18F][4-(6-{2-[2-(2-Fluoro-ethoxy)-ethoxy]-ethoxy}-naphthalen-2-yl)-phenyl]-methyl-amine in 1% EtOH/0.1% BSA in Water
(% dose/organ, avg of 3 mice±SD)
(% dose/g, avg of 3 mice±SD)
Biodistribution in ICR Mice After an iv Injection of [^18F]19a in 3% EtOH/0.1% BSA in Water
Biodistribution in ICR Mice After an iv Injection of [^18F]34a in 5% EtOH/0.1% BSA in Water
Biodistribution in ICR Mice After an iv Injection of [^18F]32a in 1% EtOH/0.1% BSA in Water

[3] = Blood, 2 min after iv injection
[4] = Blood, 30 min after iv injection
[5] = Bone, 30 min after iv injection
[6] = Brain, 2 min after iv injection
[7] = Brain, 30 min after iv injection
[8] = Heart, 2 min after iv injection
[9] = Heart, 30 min after iv injection
[10] = Kidney, 2 min after iv injection
[11] = Kidney, 30 min after iv injection
[12] = Kidney, 1 hr after iv injection
[13] = Kidney, 2 hr after iv injection
[14] = Liver, 2 min after iv injection
[15] = Liver, 30 min after iv injection
[16] = Lung, 30 min after iv injection
[17] = Muscle, 2 min after iv injection
[18] = Muscle, 30 min after iv injection
[19] = Muscle, 1 hr after iv injection
[20] = Muscle, 2 hr after iv injection
[21] = Skin, 30 min after iv injection
[22] = Spleen, 2 min after iv injection
[23] = Spleen, 30 min after iv injection
[24] = Spleen, 1 hr after iv injection
[25] = Spleen, 2 hr after iv injection

T1 sequence (P05067 672-713 limits assumed): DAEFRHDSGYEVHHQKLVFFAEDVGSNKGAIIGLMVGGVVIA
T1 sequence (P05067 672-711 limits assumed): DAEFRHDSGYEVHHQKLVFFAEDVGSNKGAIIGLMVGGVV

Nc1ccc(-c2ccc3nc(OCCOCCOCCF)ccc3c2)cc1 [Compound 33a, 4-(2-(2-(2-(2-fluoroethoxy)ethoxy)ethoxy)quinolin-6-yl)benzenamine]
Ki (amyloid plaques): 102 ± 32 nM

Nc1ccc(-c2ccc3nc(OCCOCCOCCO)ccc3c2)cc1 [Compound 33b, 2-(2-(2-(6-(4-aminophenyl)quinolin-2-yloxy)ethoxy)ethoxy)ethanol]
Ki (amyloid plaques): 109 nM

CNc1ccc(-c2ccc3nc(OCCOCCOCCF)ccc3c2)cc1 [Compound 34a, 4-(2-(2-(2-(2-fluoroethoxy)ethoxy)ethoxy)quinolin-6-yl)-N-methylbenzenamine]
Ki (amyloid plaques): 5.5 nM

CNc1ccc(-c2ccc3nc(OCCOCCOCCO)ccc3c2)cc1 [Compound 34b, 2-(2-(2-(6-(4-(methylamino)phenyl)quinolin-2-yloxy)ethoxy)ethoxy)ethanol]
Ki (amyloid plaques): 5 nM

CNc1ccc2cc(-c3ccc(OCCOCCOCC[18F])cc3)ccc2c1 [[^18F]19a]
Log P [1]: 2.60
% dose/g [2, 3]: 6.66 ± 0.86 % dose/g
% dose/organ [2, 3]: 11.1 ± 0.91 % dose/organ
% dose/g [2, 4]: 4.15 ± 0.59 % dose/g
% dose/organ [2, 4]: 6.94 ± 0.59 % dose/organ
% dose/g ([2]; Blood, 1 hr after iv injection): 3.14 ± 0.37 % dose/g
% dose/organ ([2]; Blood, 1 hr after iv injection): 4.94 ± 0.09 % dose/organ
% dose/g ([2]; Blood, 2 hr after iv injection): 3.05 ± 0.26 % dose/g
% dose/organ ([2]; Blood, 2 hr after iv injection): 5.19 ± 0.14 % dose/organ
% dose/g ([2]; Bone, 2 min after iv injection): 1.32 ± 0.18 % dose/g
% dose/organ ([2]; Bone, 2 min after iv injection): 4.42 ± 0.82 % dose/organ
% dose/g [2, 5]: 0.78 ± 0.10 % dose/g
% dose/organ [2, 5]: 2.59 ± 0.17 % dose/organ
% dose/g ([2]; Bone, 1 hr after iv injection): 0.82 ± 0.21 % dose/g
% dose/organ ([2]; Bone, 1 hr after iv injection): 2.60 ± 0.41 % dose/organ
% dose/g ([2]; Bone, 2 hr after iv injection): 1.37 ± 0.15 % dose/g
% dose/organ ([2]; Bone, 2 hr after iv injection): 4.67 ± 0.26 % dose/organ
% dose/g [2, 6]: 5.55 ± 0.77 % dose/g
% dose/organ [2, 6]: 2.51 ± 0.29 % dose/organ
% dose/g [2, 7]: 1.29 ± 0.19 % dose/g
% dose/organ [2, 7]: 0.59 ± 0.07 % dose/organ
% dose/g ([2]; Brain, 1 hr after iv injection): 1.05 ± 0.20 % dose/g
% dose/organ ([2]; Brain, 1 hr after iv injection): 0.48 ± 0.06 % dose/organ
% dose/g ([2]; Brain, 2 hr after iv injection): 0.92 ± 0.10 % dose/g
% dose/organ ([2]; Brain, 2 hr after iv injection): 0.42 ± 0.06 % dose/organ
% dose/g [2, 8]: 5.67 ± 0.42 % dose/g
% dose/organ [2, 8]: 0.63 ± 0.02 % dose/organ
% dose/g [2, 9]: 1.74 ± 0.19 % dose/g
% dose/organ [2, 9]: 0.21 ± 0.02 % dose/organ
% dose/g ([2]; Heart, 1 hr after iv injection): 1.69 ± 0.35 % dose/g
% dose/organ ([2]; Heart, 1 hr after iv injection): 0.18 ± 0.01 % dose/organ
% dose/g ([2]; Heart, 2 hr after iv injection): 1.40 ± 0.08 % dose/g
% dose/organ ([2]; Heart, 2 hr after iv injection): 0.16 ± 0.01 % dose/organ
% dose/g [2, 10]: 7.88 ± 0.94 % dose/g
% dose/organ [2, 10]: 3.06 ± 0.21 % dose/organ
% dose/g [2, 11]: 3.61 ± 0.98 % dose/g
% dose/organ [2, 11]: 1.38 ± 0.26 % dose/organ
% dose/g [2, 12]: 3.82 ± 1.54 % dose/g
% dose/organ [2, 12]: 1.37 ± 0.25 % dose/organ
% dose/g [2, 13]: 2.41 ± 0.42 % dose/g
% dose/organ [2, 13]: 0.88 ± 0.12 % dose/organ
% dose/g [2, 14]: 27.0 ± 0.91 % dose/g
% dose/organ [2, 14]: 32.0 ± 1.81 % dose/organ
% dose/g [2, 15]: 21.5 ± 2.08 % dose/g
% dose/organ [2, 15]: 25.7 ± 0.95 % dose/organ
% dose/g ([2]; Liver, 1 hr after iv injection): 14.1 ± 1.85 % dose/g
% dose/organ ([2]; Liver, 1 hr after iv injection): 15.7 ± 1.34 % dose/organ
% dose/g ([2]; Liver, 2 hr after iv injection): 8.85 ± 0.76 % dose/g
% dose/organ ([2]; Liver, 2 hr after iv injection): 10.6 ± 0.65 % dose/organ
% dose/g ([2]; Lung, 2 min after iv injection): 9.19 ± 1.18 % dose/g
% dose/organ ([2]; Lung, 2 min after iv injection): 1.76 ± 0.20 % dose/organ
% dose/g [2, 16]: 3.44 ± 0.49 % dose/g
% dose/organ [2, 16]: 0.67 ± 0.05 % dose/organ
% dose/g ([2]; Lung, 1 hr after iv injection): 2.68 ± 0.48 % dose/g
% dose/organ ([2]; Lung, 1 hr after iv injection): 0.41 ± 0.07 % dose/organ
% dose/g ([2]; Lung, 2 hr after iv injection): 2.48 ± 0.48 % dose/g
% dose/organ ([2]; Lung, 2 hr after iv injection): 0.45 ± 0.11 % dose/organ
% dose/g [2, 17]: 0.77 ± 0.14 % dose/g
% dose/organ [2, 17]: 7.42 ± 1.87 % dose/organ
% dose/g [2, 18]: 0.75 ± 0.09 % dose/g
% dose/organ [2, 18]: 7.22 ± 0.42 % dose/organ
% dose/g [2, 19]: 0.87 ± 0.03 % dose/g
% dose/organ [2, 19]: 7.86 ± 0.68 % dose/organ
% dose/g [2, 20]: 0.62 ± 0.11 % dose/g
% dose/organ [2, 20]: 6.02 ± 0.62 % dose/organ
% dose/g ([2]; Skin, 2 min after iv injection): 0.70 ± 0.04 % dose/g
% dose/organ ([2]; Skin, 2 min after iv injection): 2.51 ± 0.07 % dose/organ
% dose/g [2, 21]: 1.37 ± 0.11 % dose/g
% dose/organ [2, 21]: 4.93 ± 0.08 % dose/organ
% dose/g ([2]; Skin, 1 hr after iv injection): 1.32 ± 0.18 % dose/g
% dose/organ ([2]; Skin, 1 hr after iv injection): 4.46 ± 0.05 % dose/organ
% dose/g ([2]; Skin, 2 hr after iv injection): 0.77 ± 0.13 % dose/g
% dose/organ ([2]; Skin, 2 hr after iv injection): 2.81 ± 0.29 % dose/organ
% dose/g [2, 22]: 6.94 ± 0.99 % dose/g
% dose/organ [2, 22]: 0.79 ± 0.29 % dose/organ
% dose/g [2, 23]: 5.03 ± 1.18 % dose/g
% dose/organ [2, 23]: 0.53 ± 0.04 % dose/organ
% dose/g [2, 24]: 3.60 ± 0.15 % dose/g
% dose/organ [2, 24]: 0.30 ± 0.00 % dose/organ
% dose/g [2, 25]: 3.38 ± 0.52 % dose/g
% dose/organ [2, 25]: 0.31 ± 0.02 % dose/organ
